Values of other authors in patent US20240317846A1 (priority 2021, published 2024).

Tested on: COVID-19
Conditions: non-significant trend; cited from earlier work

**Q.** Which “Improvement in survival without requirement for supplemental oxygen” value does the source give for “Mavrilimumab: monoclonal antibody that acts as a GM-CSF alpha-receptor antagonist” here?
**A.** 48%
